In EP4722207A1, “OXOISOINDOLINYL-SUBSTITUTED TETRAHYDROPYRIMIDINEDIONE DERIVATIVE AND USE THEREOF” (Gluetacs Therapeutics (Shanghai) Co., Ltd., priority 2023, dated 2024):

Assays:
Assay type in all cases: cell-based
Settings in all cases: compounds at 50 nM and 500 nM, 24 hours
WEE1 = target: T1, WEE1 (Homo sapiens, UniProt P30291+Q96SW2); test: Western-blot assay, substrate protein degradation in hPBMCs: WEE1
T1 construct: effects of the compounds of the present disclosure on the expression of target proteins in cells; endogenous in cells; host or cells: human PBMCs (hPBMCs)

CK1α = target: T2, CK1α (Homo sapiens, UniProt P48729+Q96SW2); test: Western-blot assay, substrate protein degradation in hPBMCs: CK1α
T2 construct: effects of the compounds of the present disclosure on the expression of target proteins in cells; endogenous in cells; host or cells: human PBMCs (hPBMCs)

GSPT1 = target: T3, GSPT1 (Homo sapiens, UniProt P15170+Q96SW2); test: Western-blot assay, substrate protein degradation in hPBMCs: GSPT1
T3 construct: effects of the compounds of the present disclosure on the expression of target proteins in cells; endogenous in cells; host or cells: human PBMCs (hPBMCs)

IKZF3 = target: T4, IKZF3 (Homo sapiens, UniProt Q96SW2+Q9UKT9); test: Western-blot assay, substrate protein degradation in hPBMCs: IKZF3
T4 construct: effects of the compounds of the present disclosure on the expression of target proteins in cells; endogenous in cells; host or cells: human PBMCs (hPBMCs)

IKZF2 = target: T5, IKZF2 (Homo sapiens, UniProt Q96SW2+Q9UKS7); test: Western-blot assay, substrate protein degradation in hPBMCs: IKZF2
T5 construct: effects of the compounds of the present disclosure on the expression of target proteins in cells; endogenous in cells; host or cells: human PBMCs (hPBMCs)

IKZF1 = target: T6, IKZF1 (Homo sapiens, UniProt Q13422+Q96SW2); test: Western-blot assay, substrate protein degradation in hPBMCs: IKZF1
T6 construct: effects of the compounds of the present disclosure on the expression of target proteins in cells; endogenous in cells; host or cells: human PBMCs (hPBMCs)
T6 sequence (Q13422 whole entry): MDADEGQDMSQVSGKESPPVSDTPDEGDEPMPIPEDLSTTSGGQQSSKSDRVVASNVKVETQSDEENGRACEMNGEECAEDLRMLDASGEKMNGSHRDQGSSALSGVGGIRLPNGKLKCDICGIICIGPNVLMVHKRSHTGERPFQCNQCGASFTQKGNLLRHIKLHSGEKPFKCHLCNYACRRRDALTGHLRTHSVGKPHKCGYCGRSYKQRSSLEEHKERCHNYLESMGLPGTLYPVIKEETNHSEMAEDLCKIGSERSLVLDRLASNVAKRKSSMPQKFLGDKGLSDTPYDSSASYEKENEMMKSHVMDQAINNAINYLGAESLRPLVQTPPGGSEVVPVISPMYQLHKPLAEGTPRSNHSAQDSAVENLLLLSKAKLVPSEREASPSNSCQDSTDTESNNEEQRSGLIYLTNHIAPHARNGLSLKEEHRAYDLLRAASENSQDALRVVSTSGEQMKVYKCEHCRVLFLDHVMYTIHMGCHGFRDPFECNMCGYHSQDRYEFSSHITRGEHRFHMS
T6 sequence (Q96SW2 whole entry): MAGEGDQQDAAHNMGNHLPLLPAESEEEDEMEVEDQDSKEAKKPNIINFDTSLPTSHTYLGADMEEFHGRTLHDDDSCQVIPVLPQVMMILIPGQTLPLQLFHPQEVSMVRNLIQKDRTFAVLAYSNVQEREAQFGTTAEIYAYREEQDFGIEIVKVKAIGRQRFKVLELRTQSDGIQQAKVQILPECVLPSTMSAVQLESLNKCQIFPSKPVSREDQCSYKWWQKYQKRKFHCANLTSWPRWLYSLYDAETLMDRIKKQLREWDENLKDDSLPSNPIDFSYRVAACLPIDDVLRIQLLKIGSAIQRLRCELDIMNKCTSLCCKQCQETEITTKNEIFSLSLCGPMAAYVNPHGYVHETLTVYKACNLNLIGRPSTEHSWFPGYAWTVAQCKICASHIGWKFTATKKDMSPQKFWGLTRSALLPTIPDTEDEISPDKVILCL
T6 sequence (Q16531 whole entry partner): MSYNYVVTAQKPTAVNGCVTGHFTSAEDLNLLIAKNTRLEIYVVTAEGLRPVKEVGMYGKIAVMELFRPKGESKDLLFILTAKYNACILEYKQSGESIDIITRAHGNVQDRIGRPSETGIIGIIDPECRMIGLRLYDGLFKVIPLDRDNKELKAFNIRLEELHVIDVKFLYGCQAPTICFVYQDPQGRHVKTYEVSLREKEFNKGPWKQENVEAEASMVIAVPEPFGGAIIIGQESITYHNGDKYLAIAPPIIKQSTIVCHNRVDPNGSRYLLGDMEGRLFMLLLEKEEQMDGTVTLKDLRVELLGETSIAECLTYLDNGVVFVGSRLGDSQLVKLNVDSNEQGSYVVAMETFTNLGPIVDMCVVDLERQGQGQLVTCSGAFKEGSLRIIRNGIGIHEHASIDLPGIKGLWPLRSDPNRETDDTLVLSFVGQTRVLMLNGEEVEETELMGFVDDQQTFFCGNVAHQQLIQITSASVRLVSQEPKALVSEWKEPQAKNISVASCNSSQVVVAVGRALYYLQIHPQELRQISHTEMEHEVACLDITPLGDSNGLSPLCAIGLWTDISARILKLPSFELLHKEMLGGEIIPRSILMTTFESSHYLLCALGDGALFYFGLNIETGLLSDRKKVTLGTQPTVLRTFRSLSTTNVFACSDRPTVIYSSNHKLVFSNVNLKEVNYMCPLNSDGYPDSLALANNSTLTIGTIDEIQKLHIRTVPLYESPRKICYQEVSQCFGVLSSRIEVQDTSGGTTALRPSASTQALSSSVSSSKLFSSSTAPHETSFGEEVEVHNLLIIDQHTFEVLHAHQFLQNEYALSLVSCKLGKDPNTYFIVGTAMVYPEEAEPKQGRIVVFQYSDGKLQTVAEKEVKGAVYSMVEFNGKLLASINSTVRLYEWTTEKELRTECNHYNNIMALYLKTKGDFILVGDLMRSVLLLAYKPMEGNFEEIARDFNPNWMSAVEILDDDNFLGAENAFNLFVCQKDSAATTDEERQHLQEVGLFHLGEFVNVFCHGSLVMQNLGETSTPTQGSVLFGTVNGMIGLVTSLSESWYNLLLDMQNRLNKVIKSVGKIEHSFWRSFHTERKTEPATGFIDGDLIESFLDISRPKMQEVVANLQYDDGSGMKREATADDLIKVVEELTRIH

T1 sequence (P30291 whole entry): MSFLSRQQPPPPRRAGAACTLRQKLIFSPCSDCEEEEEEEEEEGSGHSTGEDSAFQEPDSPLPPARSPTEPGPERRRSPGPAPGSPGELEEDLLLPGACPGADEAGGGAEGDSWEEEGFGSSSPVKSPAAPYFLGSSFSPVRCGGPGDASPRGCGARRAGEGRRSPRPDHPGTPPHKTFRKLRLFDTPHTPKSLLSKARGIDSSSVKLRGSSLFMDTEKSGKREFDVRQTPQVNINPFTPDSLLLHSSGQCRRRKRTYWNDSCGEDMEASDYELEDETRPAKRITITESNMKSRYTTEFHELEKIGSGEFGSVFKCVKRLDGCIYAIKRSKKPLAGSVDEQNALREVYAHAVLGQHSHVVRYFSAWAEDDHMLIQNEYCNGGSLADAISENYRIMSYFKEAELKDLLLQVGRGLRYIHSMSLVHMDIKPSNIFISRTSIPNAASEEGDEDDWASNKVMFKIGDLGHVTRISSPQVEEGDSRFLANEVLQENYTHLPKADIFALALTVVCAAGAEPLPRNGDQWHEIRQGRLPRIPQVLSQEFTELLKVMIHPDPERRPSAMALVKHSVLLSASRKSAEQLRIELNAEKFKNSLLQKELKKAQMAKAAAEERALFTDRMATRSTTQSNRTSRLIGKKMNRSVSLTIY
T1 sequence (Q96SW2 whole entry): as the sequence (Q96SW2 whole entry) above
T1 sequence (Q16531 whole entry partner): as the sequence (Q16531 whole entry partner) above
T2 sequence (P48729 whole entry): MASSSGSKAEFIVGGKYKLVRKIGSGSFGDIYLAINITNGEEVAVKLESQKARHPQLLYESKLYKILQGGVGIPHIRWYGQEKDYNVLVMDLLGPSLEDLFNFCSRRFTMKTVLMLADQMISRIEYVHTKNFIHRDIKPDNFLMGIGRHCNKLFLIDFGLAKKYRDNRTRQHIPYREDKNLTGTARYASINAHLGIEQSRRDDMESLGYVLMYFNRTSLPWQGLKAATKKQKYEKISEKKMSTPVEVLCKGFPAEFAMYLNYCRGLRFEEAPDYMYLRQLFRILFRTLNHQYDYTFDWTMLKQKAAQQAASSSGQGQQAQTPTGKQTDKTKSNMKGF
T2 sequence (Q96SW2 whole entry): as the sequence (Q96SW2 whole entry) above
T2 sequence (Q16531 whole entry partner): as the sequence (Q16531 whole entry partner) above
T5 sequence (Q9UKS7 whole entry): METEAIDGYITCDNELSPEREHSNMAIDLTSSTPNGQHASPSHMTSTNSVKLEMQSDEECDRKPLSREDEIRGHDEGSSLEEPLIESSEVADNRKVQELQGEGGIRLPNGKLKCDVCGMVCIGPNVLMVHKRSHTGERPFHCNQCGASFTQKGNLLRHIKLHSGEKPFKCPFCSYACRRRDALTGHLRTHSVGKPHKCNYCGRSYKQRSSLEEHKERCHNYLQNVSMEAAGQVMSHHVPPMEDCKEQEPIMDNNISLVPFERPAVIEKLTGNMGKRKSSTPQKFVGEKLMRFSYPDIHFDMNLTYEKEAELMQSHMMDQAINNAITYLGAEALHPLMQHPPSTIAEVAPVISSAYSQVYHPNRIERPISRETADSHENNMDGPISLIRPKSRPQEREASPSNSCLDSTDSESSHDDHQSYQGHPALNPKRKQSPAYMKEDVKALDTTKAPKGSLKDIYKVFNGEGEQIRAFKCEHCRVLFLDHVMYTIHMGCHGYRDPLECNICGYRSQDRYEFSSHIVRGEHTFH
T5 sequence (Q96SW2 whole entry): as the sequence (Q96SW2 whole entry) above
T5 sequence (Q16531 whole entry partner): as the sequence (Q16531 whole entry partner) above
T4 sequence (Q9UKT9 whole entry): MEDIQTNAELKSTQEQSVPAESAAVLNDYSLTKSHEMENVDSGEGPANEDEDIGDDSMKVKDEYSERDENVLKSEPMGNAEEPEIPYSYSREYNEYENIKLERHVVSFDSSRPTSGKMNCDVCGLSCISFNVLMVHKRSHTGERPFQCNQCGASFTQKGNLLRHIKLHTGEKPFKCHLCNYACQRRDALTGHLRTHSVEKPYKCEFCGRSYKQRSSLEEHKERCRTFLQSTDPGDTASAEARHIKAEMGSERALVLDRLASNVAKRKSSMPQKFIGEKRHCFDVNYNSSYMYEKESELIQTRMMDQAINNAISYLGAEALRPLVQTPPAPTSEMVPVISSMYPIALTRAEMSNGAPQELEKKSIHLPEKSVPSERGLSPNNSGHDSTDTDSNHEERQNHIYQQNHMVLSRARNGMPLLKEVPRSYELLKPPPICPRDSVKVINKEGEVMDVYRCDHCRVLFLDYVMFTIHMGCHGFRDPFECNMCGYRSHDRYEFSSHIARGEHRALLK
T4 sequence (Q96SW2 whole entry): as the sequence (Q96SW2 whole entry) above
T4 sequence (Q16531 whole entry partner): as the sequence (Q16531 whole entry partner) above

Row | Compound | WEE1 substrate protein remaining % (WEE1) | CK1α substrate protein remaining % (CK1α) | GSPT1 substrate protein remaining % (GSPT1) | IKZF3 substrate protein remaining % (IKZF3) | IKZF2 substrate protein remaining % (IKZF2) | IKZF1 substrate protein remaining % (IKZF1)
1 | O=C1CCN(N2C(=O)c3ccc(CN4CC=C(c5ccsc5)CC4)cc3C2=O)C(=O)N1 [GT-06435, 2-(2,4-dioxotetrahydropyrimidin-1(2H)-yl)-5-((4-(thiophen-3-yl)-3,6-dihydropyridin-1(2H)-yl)methyl)isoindoline-1,3-dione] | A ("A" is defined as 0% ≤ substrate protein remaining % ≤ 80%) | B ("B" is defined as 80%< substrate protein remaining %≤ 100%) | A ("A" is defined as 0% ≤ substrate protein remaining % ≤ 80%) | A ("A" is defined as 0% ≤ substrate protein remaining % ≤ 80%) | A ("A" is defined as 0% ≤ substrate protein remaining % ≤ 80%) | B ("B" is defined as 80%< substrate protein remaining %≤ 100%)
2 | C[C@@H]1CN(C(c2ccccc2)c2ccccc2)CCN1Cc1ccc2c(c1)CN(N1CCC(=O)NC1=O)C2=O [GT-06448, (R)-1-(5-((4-benzhydryl-2-methylpiperazin-1-yl)methyl)-1-oxoisoindolin-2-yl)dihydropyrimidine-2,4(1H,3H)-dione] | B ("B" is defined as 80%< substrate protein remaining %≤ 100%) | B ("B" is defined as 80%< substrate protein remaining %≤ 100%) | A ("A" is defined as 0% ≤ substrate protein remaining % ≤ 80%) | A ("A" is defined as 0% ≤ substrate protein remaining % ≤ 80%) | A ("A" is defined as 0% ≤ substrate protein remaining % ≤ 80%) | B ("B" is defined as 80%< substrate protein remaining %≤ 100%)
3 | C[C@@H]1CN(C(c2ccccc2)c2ccccc2)CCN1Cc1ccc2c(c1)C(=O)N(N1CCC(=O)NC1=O)C2=O [GT-06449, (R)-5-((4-benzhydryl-2-methylpiperazin-1-yl)methyl)-2-(2,4-dioxotetrahydropyrimidin-1(2H)-yl)isoindoline-1,3-dione] | B ("B" is defined as 80%< substrate protein remaining %≤ 100%) | B ("B" is defined as 80%< substrate protein remaining %≤ 100%) | A ("A" is defined as 0% ≤ substrate protein remaining % ≤ 80%) | A ("A" is defined as 0% ≤ substrate protein remaining % ≤ 80%) | A ("A" is defined as 0% ≤ substrate protein remaining % ≤ 80%) | B ("B" is defined as 80%< substrate protein remaining %≤ 100%)
4 | O=C1CCN(N2C(=O)c3ccc(CN4CC5CCC4CN5C(c4ccccc4)c4ccccc4)cc3C2=O)C(=O)N1 (stereo not drawn) [GT-06451, 5-((5-benzhydryl-2,5-diazabicyclo[2.2.2]octan-2-yl)methyl)-2-(2,4-dioxotetrahydropyrimidin-1(2H)-yl)isoindoline-1,3-dione] | A ("A" is defined as 0% ≤ substrate protein remaining % ≤ 80%) | B ("B" is defined as 80%< substrate protein remaining %≤ 100%) | B ("B" is defined as 80%< substrate protein remaining %≤ 100%) | B ("B" is defined as 80%< substrate protein remaining %≤ 100%) | B ("B" is defined as 80%< substrate protein remaining %≤ 100%) | B ("B" is defined as 80%< substrate protein remaining %≤ 100%)
5 | O=C1CCN(N2Cc3cc(CN4CC5CCC(C4)N5C(c4ccccc4)c4ccccc4)ccc3C2=O)C(=O)N1 [GT-06452, 1-(5-((8-benzhydryl-3,8-diazabicyclo[3.2.1]octan-3-yl)methyl)-1-oxoisoindolin-2-yl)dihydropyrimidine-2,4(1H,3H)-dione] | A ("A" is defined as 0% ≤ substrate protein remaining % ≤ 80%) | B ("B" is defined as 80%< substrate protein remaining %≤ 100%) | B ("B" is defined as 80%< substrate protein remaining %≤ 100%) | B ("B" is defined as 80%< substrate protein remaining %≤ 100%) | B ("B" is defined as 80%< substrate protein remaining %≤ 100%) | B ("B" is defined as 80%< substrate protein remaining %≤ 100%)
6 | O=C1CCN(N2C(=O)c3ccc(CN4CC5CCC(C4)N5C(c4ccccc4)c4ccccc4)cc3C2=O)C(=O)N1 [GT-06453, 5-((8-benzhydryl-3,8-diazabicyclo[3.2.1]octan-3-yl)methyl)-2-(2,4-dioxotetrahydropyrimidin-1(2H)-yl)isoindoline-1,3-dione] | B ("B" is defined as 80%< substrate protein remaining %≤ 100%) | B ("B" is defined as 80%< substrate protein remaining %≤ 100%) | B ("B" is defined as 80%< substrate protein remaining %≤ 100%) | B ("B" is defined as 80%< substrate protein remaining %≤ 100%) | A ("A" is defined as 0% ≤ substrate protein remaining % ≤ 80%) | B ("B" is defined as 80%< substrate protein remaining %≤ 100%)
7 | O=C1CCN(N2Cc3cc(CN4C5CCC4CN(C(c4ccccc4)c4ccccc4)C5)ccc3C2=O)C(=O)N1 [GT-06454, 1-(5-((3-benzhydryl-3,8-diazabicyclo[3.2.1]octan-8-yl)methyl)-1-oxoisoindolin-2-yl)dihydropyrimidine-2,4(1H,3H)-dione] | A ("A" is defined as 0% ≤ substrate protein remaining % ≤ 80%) | B ("B" is defined as 80%< substrate protein remaining %≤ 100%) | B ("B" is defined as 80%< substrate protein remaining %≤ 100%) | B ("B" is defined as 80%< substrate protein remaining %≤ 100%) | B ("B" is defined as 80%< substrate protein remaining %≤ 100%) | B ("B" is defined as 80%< substrate protein remaining %≤ 100%)
8 | O=C1CCN(N2C(=O)c3ccc(CN4C5CCC4CN(C(c4ccccc4)c4ccccc4)C5)cc3C2=O)C(=O)N1 [GT-06455, 5-((3-benzhydryl-3,8-diazabicyclo[3.2.1]octan-8-yl)methyl)-2-(2,4-dioxotetrahydropyrimidin-1(2H)-yl)isoindoline-1,3-dione] | A ("A" is defined as 0% ≤ substrate protein remaining % ≤ 80%) | B ("B" is defined as 80%< substrate protein remaining %≤ 100%) | B ("B" is defined as 80%< substrate protein remaining %≤ 100%) | B ("B" is defined as 80%< substrate protein remaining %≤ 100%) | B ("B" is defined as 80%< substrate protein remaining %≤ 100%) | B ("B" is defined as 80%< substrate protein remaining %≤ 100%)
9 | CC1(C)CCC(CN2CC3CC(C2)N3Cc2ccc3c(c2)C(=O)N(N2CCC(=O)NC2=O)C3=O)=C(c2ccc(Cl)cc2)C1 [GT-06457, 5-((3-((4'-chloro-5,5-dimethyl-3,4,5,6-tetrahydro-[1,1'-biphenyl]-2-yl)methyl)-3,6-diazabicyclo[3.1.1]heptan-6-yl)methyl)-2-(2,4-dioxotetrahydropyrimidin-1(2H)-yl)isoindoline-1,3-dione] | A ("A" is defined as 0% ≤ substrate protein remaining % ≤ 80%) | A ("A" is defined as 0% ≤ substrate protein remaining % ≤ 80%) | A ("A" is defined as 0% ≤ substrate protein remaining % ≤ 80%) | A ("A" is defined as 0% ≤ substrate protein remaining % ≤ 80%) | A ("A" is defined as 0% ≤ substrate protein remaining % ≤ 80%) | A ("A" is defined as 0% ≤ substrate protein remaining % ≤ 80%)
10 | CC1(C)CCC(CN2C3CC2CN(Cc2ccc4c(c2)CN(N2CCC(=O)NC2=O)C4=O)C3)=C(c2ccc(Cl)cc2)C1 [GT-06458, 1-(5-((6-((4'-chloro-5,5-dimethyl-3,4,5,6-tetrahydro-[1,1'-biphenyl]-2-yl)methyl)-3,6-diazabicyclo[3.1.1]heptan-3-yl)methyl)-1-oxoisoindolin-2-yl)dihydropyrimidine-2,4(1H,3H)-dione] | A ("A" is defined as 0% ≤ substrate protein remaining % ≤ 80%) | A ("A" is defined as 0% ≤ substrate protein remaining % ≤ 80%) | A ("A" is defined as 0% ≤ substrate protein remaining % ≤ 80%) | A ("A" is defined as 0% ≤ substrate protein remaining % ≤ 80%) | A ("A" is defined as 0% ≤ substrate protein remaining % ≤ 80%) | A ("A" is defined as 0% ≤ substrate protein remaining % ≤ 80%)
